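Briefly, cells in 96-well plates were exposed to five compound concentrations for 48 h, and endpoints were estimated by linear interpolation. The concentration for 50% growth inhibition is given as GI50. TGI: concentration producing complete growth inhibition.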
Tests used:
Experiment in all cases: NCI tumour cell line growth inhibition, 48 h; in the data active = GI50 below about 0.43 µM; inactive = the rest
[1] = tested on: CAKI-1 renal
[2] = tested on: HOP-62 NSCLC
[3] = tested on: HCC-2998 colon
[4] = tested on: OVCAR-5 ovarian
[5] = tested on: TK-10 renal
[6] = tested on: NCI-H522 lung
[7] = tested on: HCT-15 colon
[8] = tested on: K-562 leukemia
[9] = tested on: OVCAR-3 ovarian
[10] = tested on: UACC-257 melanoma
[11] = tested on: SF-539 CNS
[12] = tested on: RXF 393 renal
[13] = tested on: LOX IMVI melanoma
[14] = tested on: CCRF-CEM leukemia
[15] = tested on: IGROV1 ovarian
[16] = tested on: M14 melanoma
[17] = tested on: 786-0 renal
[18] = tested on: OVCAR-8 ovarian
[19] = tested on: KM20L2 colon
[20] = tested on: UO-31 renal
[21] = tested on: RPMI-8226 leukemia
[22] = tested on: HOP-18 NSCLC
[23] = tested on: M19-MEL melanoma
[24] = tested on: NCI-H460 lung
[25] = tested on: ACHN renal
[26] = tested on: SK-MEL-5 melanoma
[27] = tested on: MOLT-4 leukemia
[28] = tested on: SF-268 CNS
[29] = tested on: HL-60(TB) leukemia
[30] = tested on: A498 renal
[31] = tested on: A549 NSCLC
[32] = tested on: SNB-75 CNS
[33] = tested on: SK-OV-3 ovarian
[34] = tested on: LXFL 529 NSCLC
[35] = tested on: MALME-3M melanoma
[36] = tested on: SK-MEL-28 melanoma
[37] = tested on: EKVX NSCLC
[38] = tested on: HT29 colon
[39] = tested on: COLO 205 colon
[40] = tested on: NCI-H23 lung
[41] = tested on: HCT-116 colon
[42] = tested on: NCI-H226 lung
[43] = tested on: SNB-19 CNS
[44] = tested on: UACC-62 melanoma
[45] = tested on: SW-620 colon
[46] = tested on: U251 CNS
[47] = tested on: SF-295 CNS
[48] = tested on: DMS 273 small cell lung
[49] = tested on: SNB-78 CNS
[50] = tested on: SK-MEL-2 melanoma
[51] = tested on: OVCAR-4 ovarian
[52] = tested on: KM12 colon
[53] = tested on: DLD-1 colon
[54] = tested on: SN12C renal
[55] = tested on: DMS 114 small cell lung
[56] = tested on: HOP-92 NSCLC
[57] = tested on: SR leukemia

NC1CCCCC1N.O=C([O-])c1cc(S(=O)(=O)Nc2cc(S(=O)(=O)[O-])cc3cc(S(=O)(=O)[O-])cc(O)c23)ccc1[O-].[Pt+4]
> 100 µM: TGI [1] | TGI [2] | TGI [3] | TGI [4] | TGI [5] | TGI [6] | TGI [7] | TGI [8] | TGI [9] | TGI [10] | TGI [11] | TGI [12] | TGI [13] | TGI [14] | TGI [15] | TGI [16] | TGI [17] | TGI [18] | TGI [19] | TGI [20] | TGI [21] | TGI [22] | TGI [23] | TGI [24] | TGI [25] | TGI [26] | TGI [27] | TGI [28] | TGI [29] | TGI [30] | TGI [31] | TGI [32] | TGI [33] | TGI [34] | TGI [35] | TGI [36] | TGI [37] | TGI [38] | TGI [39] | TGI [40] | TGI [41] | TGI [42] | TGI [43] | TGI [44] | TGI [45] | TGI [46] | TGI [47] | TGI [48] | TGI [49] | TGI [50] | TGI [51] | TGI [52] | TGI [53] | TGI [54]
inactive: GI50 [1] > 100 µM | GI50 [2] > 100 µM | GI50 [3] > 100 µM | GI50 [4] > 100 µM | GI50 [5] > 100 µM | GI50 [6] > 100 µM | GI50 [7] > 100 µM | GI50 [8] > 100 µM | GI50 [9] > 100 µM | GI50 [10] > 100 µM | GI50 [11] > 100 µM | GI50 [12] > 100 µM | GI50 [13] > 100 µM | GI50 [14] > 100 µM | GI50 [15] > 100 µM | GI50 [16] > 100 µM | GI50 [17] > 100 µM | GI50 [18] > 100 µM | GI50 [19] > 100 µM | GI50 [20] > 100 µM | GI50 [21] 89.5 µM | GI50 [22] > 100 µM | GI50 [23] > 100 µM | GI50 [24] 41.8 µM | GI50 [25] > 100 µM | GI50 [26] 88.7 µM | GI50 [27] > 100 µM | GI50 [28] > 100 µM | GI50 [29] 89.8 µM | GI50 [30] > 100 µM | GI50 [31] 61.6 µM | GI50 [32] > 100 µM | GI50 [33] > 100 µM | GI50 [34] > 100 µM | GI50 [35] 63.5 µM | GI50 [36] > 100 µM | GI50 [37] > 100 µM | GI50 [38] > 100 µM | GI50 [39] > 100 µM | GI50 [40] > 100 µM | GI50 [41] > 100 µM | GI50 [42] > 100 µM | GI50 [43] > 100 µM | GI50 [44] > 100 µM | GI50 [45] > 100 µM | GI50 [46] > 100 µM | GI50 [47] > 100 µM | GI50 [48] > 100 µM | GI50 [49] > 100 µM | GI50 [50] > 100 µM | GI50 [51] > 100 µM | GI50 [52] > 100 µM | GI50 [53] > 100 µM | GI50 [54] > 100 µM

CN=c1ss/c(=N\C(=S)N(C)C)n1-c1ccccc1
42.6 µM: TGI [32]
> 100 µM: TGI [1] | TGI [2] | TGI [3] | TGI [4] | TGI [5] | TGI [7] | TGI [8] | TGI [9] | TGI [10] | TGI [55] | TGI [11] | TGI [13] | TGI [14] | TGI [15] | TGI [16] | TGI [17] | TGI [18] | TGI [19] | TGI [20] | TGI [21] | TGI [22] | TGI [23] | TGI [24] | TGI [25] | TGI [26] | TGI [56] | TGI [27] | TGI [28] | TGI [29] | TGI [30] | TGI [31] | TGI [33] | TGI [34] | TGI [35] | TGI [36] | TGI [37] | TGI [39] | TGI [40] | TGI [41] | TGI [42] | TGI [43] | TGI [44] | TGI [45] | TGI [46] | TGI [47] | TGI [48] | TGI [49] | TGI [50] | TGI [51] | TGI [52] | TGI [57] | TGI [53] | TGI [54]
> 28.5 µM: TGI [6]
> 31.6 µM: TGI [38]
> 82.1 µM: TGI [12]
